{"source": "patent US8076371B2", "about": "“Gallium compositions for the treatment of liver cancer and methods of use” (priority 2006, dated 2011)", "key": {"[1]": {"tested_on": "poly(ADP-ribose) polymerase (PARP) in HCC cell lines", "assay": "Immunoblotting, PARP assay for apoptosis", "type": "cell-based, human", "conditions": "HCC cell lines Hep 3B, Hep 40, and SNU475; 10 μM or 30 μM, six days exposure", "method": "(§1) The activity of gallium maltolate and gallium nitrate was studied in vitro on several human hepatocellular carcinoma (HCC) cell lines (Hep3B, HepG2, SNU475, and Hep 40). Further information on these experiments is reported by Chua et al., Anticancer Research 26:1739-1744, 2006.\n(§2) Immunoblotting: Cells were exposed to 10 μM or 30 μM gallium maltolate for six days; whole cell lysates were then prepared and total protein quantified using the Bradford Assay. Approximately 20 μg of protein was electrophoresed on pre-cast gels and transferred onto PVDF membranes. Non-specific sites were blocked by incubation with 5% non-fat milk in TBS-1% Tween solution for 1 hr at room temperature. Proteins were then detected with specific antibodies against CD71 (transferrin receptor 1) or PARP at recommended dilutions, followed by appropriate HRP-conjugated secondary antibodies."}, "[2]": {"tested_on": "human hepatocellular carcinoma (HCC) cell lines (Hep3B, HepG2, SNU475, and Hep 40)", "assay": "Assessment of apoptotic cell morphology (hematoxylin and eosin, light microscope)", "type": "cell-based", "conditions": "30 μM, six days exposure; all four HCC cell lines", "method": "as §1\nAssessment of apoptotic cell morphology: After six days exposure to gallium maltolate at either 10 μM or 30 μM, cells were fixed using absolute methanol at −20° C. for 10 min, then stained with hematoxylin and eosin. Cell morphology was then observed with a light microscope."}, "[3]": {"tested_on": "CD71 (transferrin receptor 1) in HCC cell lines", "assay": "Immunoblotting, CD71 (transferrin receptor 1) protein level", "type": "cell-based, human", "conditions": "six-day exposure to 10 μM or 30 μM; all four HCC cell lines", "method": "as §1, §2"}}, "data": [{"compound": "Cc1occc(=O)c1[O-].Cc1occc(=O)c1[O-].Cc1occc(=O)c1[O-].[Ga+3]", "note": "[gallium maltolate, tris(3-hydroxy-2-methyl-4H-pyran-4-onato)gallium]", "values": [{"measurement": "poly(ADP-ribose) polymerase (PARP) assay for apoptosis", "setting": "[1]", "value": "positive"}, {"measurement": "cellular morphology (apoptosis)", "setting": "[2]", "value": "indicative of apoptosis"}, {"measurement": "protein level of CD71 (transferrin receptor 1)", "setting": "[3]", "value": "dose-dependent increase"}]}]}
